Experiment [1] deals with T1, EP3 receptor (Homo sapiens, UniProt P43115).
T1 construct: purchased Millipore HTS092M
T1 sequence (P43115 1-390): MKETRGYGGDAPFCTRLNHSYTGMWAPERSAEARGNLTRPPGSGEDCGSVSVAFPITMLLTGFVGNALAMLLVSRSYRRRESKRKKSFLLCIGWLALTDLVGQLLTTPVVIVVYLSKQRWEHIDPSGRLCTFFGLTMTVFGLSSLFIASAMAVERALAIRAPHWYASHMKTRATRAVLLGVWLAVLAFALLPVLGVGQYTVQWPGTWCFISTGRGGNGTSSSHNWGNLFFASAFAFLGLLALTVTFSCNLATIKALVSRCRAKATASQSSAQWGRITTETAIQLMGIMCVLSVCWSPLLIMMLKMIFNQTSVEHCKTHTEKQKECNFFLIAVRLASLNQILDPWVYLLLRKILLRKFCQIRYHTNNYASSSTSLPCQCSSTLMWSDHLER
In words: CHO cell cAMP assay (forskolin and sulprostone stimulated, HTRF). The class given is cell-based. The conditions noted are these: CHO cells; sulprostone 700 nM (EC80) and FSK 2 μM (EC70), 37° C. for 30 minutes; read-out: CHO_cAMP IC50. The procedure: For detection, a homogeneous competitive immunoassay (Time Resolved Fluorescence Energy Transfer (hTR-FRET)) was used.
Cells (6K cells per well) were plated in Poly-D-Lysine coated plates the day before the assay was to be run and were incubated at 37° C. […] At the start of the assay the buffer was removed from the cells and replaced with buffer containing test compound(s). Sulprostone at an EC80 dose (700 nM) and FSK at an EC70 dose (2 μM) were added to initiate the reaction (37° C. for 30 minutes).
FSK increases cAMP production and sulprostone decreases cAMP production produced by FSK. In this assay, EP3 antagonists will increase the cAMP to the level of cAMP generated by FSK alone.
Approximately one hour later the plates were read on an Envision (Perkin Elmer) in HTRF mode.
NSP, NSN, NSsample were converted to nM cAMP using the following equation: […]
IC50 values were determined from a […] (Hill equation) of a single 11-point compound dosing.
Background: Changes in cAMP serve as a functional read-out for many G protein-coupled receptors.

The target in experiment [2] is T1, EP3 receptor. Description: [3H]-PGE2 binding assay (EP3 competition binding). The conditions noted are these: read-out: [3H]-PGE2 Binding Ki. In outline: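 Scintillation-bead competition binding with EP3 membranes (2 μg/well), 2 nM [3H]-PGE2, 0.1% DMSO, in 50 mM Tris, 10 mM MgCl2, 1 mM EDTA, pH 7.4.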

What is called IC50 is the concentration at which inhibition is half-maximal. One may read the Ki as the dissociation constant of the complex between target and ligand, obtained from inhibition or displacement. With `CC1(c2ccc(-c3ccc4ccccc4c3)[nH]c2=O)C(=O)Nc2nccn21` (centres unmarked) [compound 153, 3-methyl-3-(6-(naphthalen-2-yl)-2-oxo-1,2-dihydropyridin-3-yl)-1H-imidazo[1,2-a]imidazol-2(3H)-one], the half-maximal inhibitory concentration (IC50) at EP3 receptor [1] worked out at 400 nM. Besides, the inhibition constant (Ki) on EP3 receptor [2] was 43 nM.

For the molecule `CC(C)/C(=C1/OC(=O)NC1=O)c1ccc(-c2ccc3cccc(F)c3c2)[nH]c1=O` [Compound #303, (Z)-5-(1-(6-(8-fluoronaphthalen-2-yl)-2-oxo-1,2-dihydropyridin-3-yl)-2-methylpropylidene)oxazolidine-2,4-dione], at EP3 receptor [1], the 50% inhibitory concentration (IC50) was 1280 nM. Further, the inhibitory constant (Ki) at EP3 receptor [2] is 14 nM.

On to `CCn1ncc2c(F)cc(-c3ccc(C4CCN(C(=O)CO)CC4)c(=O)[nH]3)cc21` [compound 197, 6-(1-ethyl-4-fluoro-1H-indazol-6-yl)-3-(1-(2-hydroxyacetyl)piperidin-4-yl)pyridin-2(1H)-one], for which, on EP3 receptor [1], the IC50 came to 967 nM. In addition, at EP3 receptor [2], the Ki was 169 nM.

In the case of `CC(C)C(O)(C(N)=O)c1ccc(-c2ccc3c(c2)OCCN3C)[nH]c1=O` (centres unmarked) [compound 225, 2-hydroxy-3-methyl-2-(6-(4-methyl-3,4-dihydro-2H-benzo[b][1,4]oxazin-7-yl)-2-oxo-1,2-dihydropyridin-3-yl)butanamide], on EP3 receptor [1], the half-inhibitory concentration (IC50) was found to be 4570 nM. Moreover, the inhibitory constant (Ki) at EP3 receptor [2] is 343 nM.

Take `CCn1ncc2c(F)cc(-c3ccc(C(/C=C4\CCNC4=O)(CC)CC)c(=O)[nH]3)cc21` [compound 16, 6-(1-ethyl-4-fluoro-indazol-6-yl)-3-[1-ethyl-1-[(E)-(2-oxopyrrolidin-3-ylidene)methyl]propyl]-1H-pyridin-2-one]: the IC50 on EP3 receptor [1] is 17 nM. Moreover, the inhibition constant Ki on EP3 receptor [2] is 6 nM.

On to `CC(C)C(c1ccc(-c2ccc3cccc(F)c3c2)[nH]c1=O)n1ccnc1N` (centres unmarked) [Compound #162, 3-(1-(2-amino-1H-imidazol-1-yl)-2-methylpropyl)-6-(8-fluoronaphthalen-2-yl)pyridin-2(1H)-one], for which the half-inhibitory concentration (IC50) at EP3 receptor [1] is 117 nM. In addition, on EP3 receptor [2], the inhibition constant (Ki) was determined as 13 nM.

Turning to `CCn1ncc2c(F)cc(-c3ccc(C(CC)(CC)c4nnn[nH]4)c(=O)[nH]3)cc21` [Compound #3, 3-(3-(1H-tetrazol-5-yl)pentan-3-yl)-6-(1-ethyl-4-fluoro-1H-indazol-6-yl)pyridin-2(1H)-one], on EP3 receptor [1], the IC50 amounted to 349 nM. Further, the inhibition constant Ki at EP3 receptor [2] stood at 17 nM.

For the molecule `O=C1NC(=O)/C(=C/C(c2ccc(-c3ccc4cccc(F)c4c3)[nH]c2=O)C2CCCCC2)O1` (centres unmarked) [compound 134, (Z)-5-(2-cyclohexyl-2-(6-(8-fluoronaphthalen-2-yl)-2-oxo-1,2-dihydropyridin-3-yl)ethylidene)oxazolidine-2,4-dione], the IC50 on EP3 receptor [1] amounted to 8 nM. Moreover, the Ki on EP3 receptor [2] was 4 nM.

As for `CCn1ncc2c(F)cc(-c3ccc(C(CC)(CC)c4ncco4)c(=O)[nH]3)cc21` [Compound #30, 6-(1-ethyl-4-fluoro-1H-indazol-6-yl)-3-(3-(oxazol-2-yl)pentan-3-yl)pyridin-2(1H)-one], on EP3 receptor [1], the IC50 was 12 nM. In addition, at EP3 receptor [2], the Ki worked out at 2 nM.

In the case of `CONC(=O)CC(c1ccc(-c2ccc3cccc(F)c3c2)[nH]c1=O)C(C)C` (centres unmarked) [compound 257, 3-(6-(8-fluoronaphthalen-2-yl)-2-oxo-1,2-dihydropyridin-3-yl)-N-methoxy-4-methylpentanamide], the half-inhibitory concentration (IC50) at EP3 receptor [1] turned out to be 23 nM. Besides, on EP3 receptor [2], the inhibitory constant (Ki) stood at 2 nM.

With `CC(C)C(NC(N)=O)c1ccc(-c2ccc3cccc(F)c3c2)[nH]c1=O` (centres unmarked) [compound 267, 1-(1-(6-(8-fluoronaphthalen-2-yl)-2-oxo-1,2-dihydropyridin-3-yl)-2-methylpropyl)urea], at EP3 receptor [1], the 50% inhibitory concentration (IC50) worked out at 14 nM. Further, the inhibition constant (Ki) on EP3 receptor [2] is 6 nM.

As for `CCS(=O)(=O)N1CCC(c2ccc(-c3ccc4ccccc4c3)[nH]c2=O)CC1` [compound 190, 3-(1-(ethylsulfonyl)piperidin-4-yl)-6-(naphthalen-2-yl)pyridin-2(1H)-one], the IC50 at EP3 receptor [1] was 614 nM. For the same molecule, the Ki on EP3 receptor [2] is 32 nM.

`CCOC(=O)C(C1=CCCCC1)c1ccc(-c2ccc3ccccc3c2)[nH]c1=O` (centres unmarked) [Compound #280, ethyl 2-(cyclohex-1-en-1-yl)-2-(6-(naphthalen-2-yl)-2-oxo-1,2-dihydropyridin-3-yl)acetate]: the concentration for half-maximal inhibition (IC50) on EP3 receptor [1] came to 671 nM. Moreover, the Ki on EP3 receptor [2] was found to be 76 nM.

For the molecule `CCN1CCOc2ccc(-c3ccc(C(C(C)C)N4CCS(=O)(=O)CC4)c(=O)[nH]3)cc21` (centres unmarked) [Compound #169, 3-(1-(1,1-dioxidothiomorpholino)-2-methylpropyl)-6-(4-ethyl-3,4-dihydro-2H-benzo[b][1,4]oxazin-6-yl)pyridin-2(1H)-one], on EP3 receptor [1], the IC50 is 476 nM. Further, at EP3 receptor [2], the Ki worked out at 51 nM.

Turning to `CONC1=NC(c2ccc(-c3ccc4cccc(F)c4c3)[nH]c2=O)(C(C)C)CN1` (centres unmarked) [compound 292, (Z)-6-(8-fluoronaphthalen-2-yl)-3-(4-isopropyl-2-(methoxyimino)imidazolidin-4-yl)pyridin-2(1H)-one], the IC50 on EP3 receptor [1] came out at 6 nM. Further, on EP3 receptor [2], the inhibition constant Ki turned out to be 2 nM.

With `CC(C)C(Cc1ccc(-c2ccc3cccc(F)c3c2)[nH]c1=O)C(N)=O` (centres unmarked) [compound 253, 2-((6-(8-fluoronaphthalen-2-yl)-2-oxo-1,2-dihydropyridin-3-yl)methyl)-3-methylbutanamide], the concentration for half-maximal inhibition (IC50) at EP3 receptor [1] came to 59 nM. Besides, the inhibitory constant (Ki) at EP3 receptor [2] turned out to be 12 nM.

Take `CC(C)C(C(=O)NCCOCCOCCN(C)C)c1ccc(-c2ccc3cccc(F)c3c2)[nH]c1=O` (centres unmarked) [compound 229, N-(2-(2-(2-(dimethylamino)ethoxy)ethoxy)ethyl)-2-(6-(8-fluoronaphthalen-2-yl)-2-oxo-1,2-dihydropyridin-3-yl)-3-methylbutanamide]: on EP3 receptor [1], the IC50 was determined as 142 nM. Moreover, the Ki on EP3 receptor [2] was 12 nM.

As to `CC(C)C(CC(=O)NCCN(C)C)c1ccc(-c2ccc3cccc(F)c3c2)[nH]c1=O` (centres unmarked) [compound 259, N-(2-(dimethylamino)ethyl)-3-(6-(8-fluoronaphthalen-2-yl)-2-oxo-1,2-dihydropyridin-3-yl)-4-methylpentanamide], the half-maximal inhibitory concentration (IC50) at EP3 receptor [1] worked out at 242 nM. Further, the Ki at EP3 receptor [2] was found to be 28 nM.

On to `CC(=C1OC(=O)NC1=O)C(c1ccc(-c2ccc3cccc(F)c3c2)[nH]c1=O)C(C)C` (centres unmarked) [compound 84], for which the IC50 on EP3 receptor [1] is 26 nM. Further, the inhibitory constant (Ki) at EP3 receptor [2] was 7 nM.

`CC(C)C(c1ccc(-c2ccc3cccc(F)c3c2)[nH]c1=O)n1cnnc1N` (centres unmarked) [compound 160, 3-(1-(3-amino-4H-1,2,4-triazol-4-yl)-2-methylpropyl)-6-(8-fluoronaphthalen-2-yl)pyridin-2(1H)-one]: the half-maximal inhibitory concentration (IC50) at EP3 receptor [1] stood at 44 nM. Besides, the inhibition constant (Ki) at EP3 receptor [2] turned out to be 13 nM.

Regarding `CC(C)C(NC(=O)NCCN(C)C)c1ccc(-c2ccc3cccc(F)c3c2)[nH]c1=O` (centres unmarked) [compound 266, 1-(2-(dimethylamino)ethyl)-3-(1-(6-(8-fluoronaphthalen-2-yl)-2-oxo-1,2-dihydropyridin-3-yl)-2-methylpropyl)urea], the 50% inhibitory concentration (IC50) at EP3 receptor [1] was 736 nM. In addition, the Ki on EP3 receptor [2] came out at 28 nM.

Take `CC(C)C(/C=C1\OC(=O)NC1=O)c1ccc(-c2cc(Cl)c3c(c2)ncn3C)[nH]c1=O` (centres unmarked) [compound 97, (Z)-5-(2-(6-(7-chloro-1-methyl-1H-benzo[d]imidazol-5-yl)-2-oxo-1,2-dihydropyridin-3-yl)-3-methylbutylidene)oxazolidine-2,4-dione]: at EP3 receptor [1], the 50% inhibitory concentration (IC50) was 666 nM. Further, the inhibition constant Ki at EP3 receptor [2] turned out to be 179 nM.

(Values after patent US10336701B2, “Pyridin-2-one derivatives of formula (II) useful as EP3 receptor antagonists” (Janssen Pharmaceutica NV, priority 2017, dated 2019).)
